# Read-outs that look alike come from different tables or passages of the source.
# Key:
# [1] = target: [^35S]25-nt hnRNP-E1 mRNA cis-element; experiment: Dissociation constant (KD) of GST-hnRNP-E1 or its mutant proteins for the 25-nt hnRNP-E1 mRNA cis-element; type: binding, human
# Experimental: (§1) Methods for testing the ability of an engineered hnRNP-E1 variant polypeptide to bind to an RNA comprising the sequence of SEQ ID NO:6 are known in the art. Such methods include, but are not limited to, RNA electrophoretic mobility shift assays, as exemplified herein, RNA pull-down assays, and oligonucleotide-targeted RNase H protection assays. Such assays are conducted in the presence or absence of homocysteine to determine the RNA-binding dependence of any particular hnRNP-E1 polypeptide tested on the presence of homocysteine. […] Additional methods are outline in Tang et al. (“Incrimination of heterogeneous nuclear ribonucleoprotein E1 (hnRNP-E1) as a candidate sensor of physiological folate deficiency.” J Biol Chem. 2011; 286(45):39100-39115), which is incorporated herein in its entirety.
# (§2) Specific binding was determined by subtracting values of non-specific binding with GST from those of total binding with GST-hnRNP-E1; (however, in Table 1 and FIG. 6G, non-specific binding using bovine serum albumin (BSA) was subtracted from total binding to GST-hnRNP-E1 to determine specific binding). The KD was calculated from a Scatchard plot using GraphPad Prism 6 from GraphPad Software (San Diego, Calif.), as previously described in the art.
# [2] = target: [^35S]18-nt folate receptor-α mRNA cis-element; conditions: earlier studies, cited from earlier work
# [3] = target: [^35S]18-nt folate receptor-α mRNA cis-element; experiment: Dissociation constant (KD) of GST-hnRNP-E1 or its mutant proteins for the 18-nt folate receptor-α mRNA cis-element; type: binding, human
# Experimental: as §1, §2
# [4] = system: newly synthesized [^35S]folate receptors in placental 1584-HF cells; experiment: Biosynthetic rate of folate receptors after protein transfection into placental 1584-HF cells; type: cell-based, human; conditions: protein transfected in placental 1584-HF cells
# Description: (§3) Transfection of purified recombinant wild-type or various mutant hnRNP-E1 proteins into cells was achieved using the Xfect™ Protein Transfection Kit (Clontech, Mountain View, Calif.). Briefly, placental 1584-HF cells in 10-cm dishes at 70-80% confluence were transfected with 2.4-mL serum-free medium and Xfect Protein Transfection Reagent (1.2-mL) containing 20-μg of either wild-type hnRNP-E1-, or highest-affinity (HA)-hnRNP-E1(C293S)-mutant, or wild-type-like hnRNP-E1 (G292A)-mutant proteins and 2-μg of ß-galactosidase at 37° C. for 60-min. After cysteine-starvation for 4-h, an aliquot of cells were assessed for ß-galactosidase activity (to measure the efficiency of co-transfection of ß-galactosidase) and the remaining cells were pulsed with L-[^35S]cysteine (250-μCi) and assessed for specific [^35S]cysteine incorporated into folate receptor to determine the biosynthetic rate of this protein. A similar protocol was employed for analysis of newly synthesized [^35S]hnRNP-E1 using anti-hnRNP-E1 antiserum-coupled agarose and control agarose in order to derive values for specific [^35S]cysteine incorporated into hnRNP-E1 and thereby determine the biosynthetic rate of this protein.
# [5] = system: 25-nt hnRNP-E1 mRNA cis-element; experiment: Gel-shift assay of hnRNP-E1 proteins with 25-nt hnRNP-E1 mRNA cis-element; type: binding, human; conditions: absence of L-homocysteine
# Experimental: Parenthetically, there was no significant difference in RNA binding to GST-hnRNP-E1 by use of either 32P-RNA probes or 35S-labeled RNA probes used. Other studies assessed the effect of iron(II) or iron(III) on homocysteine-induced RNA-protein interactions.
# Recombinant GST-plasmid DNA, pGST-hnRNP-E1, pGST-hnRNP-E2, and related engineered variant plasmids were transformed into BL21 Escherichia coli from Novagen (Madison, Wis.). After induction by 1 mM isopropyl-1-thio-ß-D-galactopyranoside, the GST-hnRNP-E1 and engineered variant fusion proteins were individually purified using the B-PER GST Fusion Protein Purification Kit (Pierce, Rockford, Ill.). The eluted GST fusion proteins were dialyzed against 500 volumes of buffer to remove excess reducing reagents (such as dithiothreitol (DTT)) and assayed by SDS-PAGE and Western blots using anti-peptide hnRNP-E1 antiserum. Gel shift assays with target RNA were carried out as described.
# [6] = system: HPV16 L2 RNA; experiment: In vitro translation of HPV16 L2 protein; type: biochemical, Human Papillomavirus type 16
# Experimental: (§4) In vitro transcription-translation was carried out using the Linked SP6/T7 In Vitro Transcription/Translation Kit (Roche Applied Science) after addition of one of various targeted DNAs—pSPT18-25-hnRNP-E1 DNA, or Pst1-linearized plasmid pSPT18-folate receptor-α, or HPV16 L2 DNA, (0.5 μg/reaction)—to the transcription mix as described. In other experiments, the capacity for perturbing the interaction of hnRNP-E1 with the 25-nt hnRNP-E1 cis-element during in vitro translation was assessed in the presence of either scrambled oligonucleotides (5′-[…]-3′ SEQ ID NO:20) or specific antisense oligonucleotides (5′-[…]-3′ SEQ ID NO:21) generated against the 25-nt hnRNP-E1 mRNA cis-element (GenScript USA, Piscataway, N.J.).
# Construction of plasmids for generation of HPV16 L2 RNA, gel-shift and in vitro translation studies were carried as described with additional treatments shown in FIGS. 10A-10D
# [7] = system: newly synthesized [^35S]hnRNP-E1 in placental 1584-HF cells; experiment: Biosynthetic rate of hnRNP-E1 after protein transfection into placental 1584-HF cells; type: cell-based, human; conditions: protein transfected in placental 1584-HF cells
# Description: as §3
# [8] = system: hnRNP-E1 mRNA; experiment: In vitro translation of hnRNP-E1; type: biochemical, human
# Experimental: as §4
# [9] = target: T1, RNA-protein complexes of GST-hnRNP-E1 and 25-nt hnRNP-E1 mRNA cis-element (Homo sapiens, UniProt Q15365, A205V); experiment: Gel-shift assay: effect of thiols, iron and deferoxamine on RNA-protein complex formation; type: binding; conditions: fixed L-homocysteine
# T1 construct: made in house; host or cells: Escherichia coli BL21
# T1 sequence (Q15365 whole entry A205V, one chain of several): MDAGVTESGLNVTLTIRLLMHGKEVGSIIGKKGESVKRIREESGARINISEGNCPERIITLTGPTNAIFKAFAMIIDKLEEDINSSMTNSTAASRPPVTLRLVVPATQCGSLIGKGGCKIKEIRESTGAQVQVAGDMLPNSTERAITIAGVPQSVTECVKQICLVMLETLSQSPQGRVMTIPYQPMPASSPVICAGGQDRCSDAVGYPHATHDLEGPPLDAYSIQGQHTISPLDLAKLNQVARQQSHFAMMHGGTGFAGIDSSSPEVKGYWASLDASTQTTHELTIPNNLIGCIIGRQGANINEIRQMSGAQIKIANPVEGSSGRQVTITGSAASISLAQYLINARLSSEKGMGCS
# Experimental: Other studies assessed the effect of iron(II) or iron(III) on homocysteine-induced RNA-protein interactions.
# Studies were conducted to evaluate the effect of iron(II) (as ferrous sulfate heptahydrate) or iron(III) (as ferric chloride hexahydrate) in modulating RNA-protein interactions during gel-shift assays in either the absence or presence of 10-mM glutathione. The iron preparation, either alone or with 50-μM of deferoxamine (DFO) to define the specificity of iron(II), was incubated first with glutathione and hnRNP-E1 before addition of other components of the reaction mixture. […] The samples were analyzed by PAGE and autoradiography overnight followed by densitometric analysis of the signals representing RNA-protein complexes.
# [10] = target: T2, RNA-protein interaction of 25-nt hnRNP-E1 mRNA cis-element and GST-hnRNP-E1 (Homo sapiens, UniProt Q15365, A205V); experiment: Influence of thiols or iron(II) on the KD of the RNA-protein interaction; type: binding; conditions: L-homocysteine present
# T2 construct: made in house; host or cells: Escherichia coli BL21
# T2 sequence (Q15365 whole entry A205V): as the sequence (Q15365 whole entry A205V, one chain of several) above
# Experimental: as §2
# [11] = target: T3, 25-nt hnRNP-E1 mRNA cis-element-bound hnRNP-E1 protein complexes (Homo sapiens, UniProt Q15365); experiment: Slot-blot capture of intracellular RNA-protein complexes in placental 1584-HF cells; type: cell-based; conditions: increasing concentrations, 2-hour exposure
# T3 construct: endogenous in cells; host or cells: human placental 1584-HF / 1584-LF cells
# T3 sequence (Q15365 whole entry, one chain of several): as the sequence (Q15365 whole entry A205V, one chain of several) above, with V205A counted along it
# Experimental: Slot-blot hybridization was carried out under high stringency conditions to detect intracellular RNA-protein complexes (composed of endogenous hnRNP-E1 RNA cis-element-bound to cellular hnRNP-E1 proteins) in placental 1584 cells under experimental conditions that modulated the intracellular concentration of homocysteine. We employed similar principles used to capture folate receptor-α mRNA cis-element-bound hnRNP-E1 complexes in HeLa-IU1 cells. […] Following RNase treatment and proteolysis, equal aliquots of the released small mRNA cis-element fragments were probed for evidence of enrichment of hnRNP-E1 mRNA cis-element in experimental cells using a specific [^35S]labeled antisense hnRNP-E1 mRNA cis-element probe.
# [12] = system: 25-nt hnRNP-E1 cis-element-driven CAT reporter; experiment: 25-nt hnRNP-E1 cis-element-driven CAT reporter in placental 1584-HF cells; type: cell-based, human; conditions: 50-μM L-homocysteine for 3-h at 37° C.
# Description: To prepare pCAT-25 or pCAT-25-Mutant two pairs of oligonucleotides, one for pCAT-25, (5′-tagcaggtac AAGCTTCTCCCGCCCGCTCCCGCTCGCTCCCCATGG tgtaactagct-3′SEQ ID NO:22; 5′-agctagttaca CCATGGGGAGCGAGCGGGAGCGGGCGGGAGAAGCTT gtacctgcta-3′ SEQ ID NO:23), and one for pCAT-25-Mutant#6, (5′-tagcaggtac AAGCTTCTTCCGCCCGCTCCCGCTCGCTTCCCATGG tgtaactagct-3′ SEQ ID NO:24; 5′-agctagttaca CCATGGGGAGCGAGCGGGAGCGGGCGGGAGAAGCTT gtacctgcta-3′SEQ ID NO:25) were first linearized with HindIII and NcoI and subcloned into pCAT3 Control DNA digested with HindIII and NcoI.
# [13] = target: T1, RNA-protein complexes of GST-hnRNP-E1 and 25-nt hnRNP-E1 mRNA cis-element; experiment: Gel-shift assay: effect of thiols, iron and deferoxamine on RNA-protein complex formation; type: binding
# [14] = target: hnRNP-E1 binding to folate receptor mRNA and hnRNP-E1 mRNA cis-element (Homo sapiens, UniProt Q15365); conditions: physiologically relevant thiols; cited from earlier work
# Chain of hnRNP-E1 binding to folate receptor mRNA and hnRNP-E1 mRNA cis-element (Q15365 whole entry): as the sequence (Q15365 whole entry A205V, one chain of several) above, with V205A counted along it
compound,measurement,setting,value
GST-hnRNP-E1: purified recombinant glutathione S-transferase fusion of wild-type human hnRNP-E1 (SEQ ID NO:1),Kd,"[1]; Iron(II) 0 μM, L-Homocysteine 25 μM",2.74 ± 0.52 nM
same,Kd,"[1]; Iron(II) 5 μM, L-Homocysteine 25 μM",3.72 ± 0.34 nM
same,Kd,"[1]; Iron(II) 25 μM, L-Homocysteine 25 μM",6.5 ± 0.83 nM
same,Kd,[1]; L-Homocysteine 0 μM,1.93 nM
same,Kd,[1]; L-Homocysteine 10 μM,1.14 nM
same,Kd,[1]; L-Homocysteine 50 μM,0.62 nM
same,Kd,[2]; L-homocysteine raised to levels of mild-to-moderate folate deficiency,0.5 nM
same,Kd,[2]; baseline,1.5 nM
same,Kd,[3]; L-Homocysteine 0 μM,1.47 nM
same,Kd,[3]; L-Homocysteine 10 μM,0.89 ± 0.16 nM
same,Kd,[3]; L-Homocysteine 50 μM,0.47 nM
same,[^35S]cysteine-folate receptor,[4],1.62 ± 0.11 b fmol/mg protein/h
same,[^35S]cysteine-folate receptor,[4]; listed as wild-type hnRNP-E1,1.62 fmol/mg protein/h
same,RNA-protein gel-shift signal,[5],no RNA-protein gel-shift signals
same,HPV16 L2 protein signal,[6]; after quenching excess ß-ME by NEM (2 mM),insignificant reduction of HPV16 L2 protein signal
same,in vitro translation of HPV16 L2 protein,"[6]; basal conditions, excess ß-ME not counteracted by NEM, dose-dependent addition",progressive reduction in the in vitro translation of HPV16 L2 protein
same,[^35S]cysteine-hnRNP-E1,[7],1.12 ± 0.23 b fmol/mg protein/h
same,[^35S]cysteine-hnRNP-E1,[7]; listed as wild-type hnRNP-E1,1.12 fmol/mg protein/h
"O.O.O.O.O.O.O.O=S(=O)([O-])[O-].[Fe+2] [iron(II), ferrous sulfate heptahydrate]",effect on in vitro translation of hnRNP-E1,[8]; agent added to translation mixture (4.1-mM ß-ME),dose-dependent impact in quenching the in vitro translation of hnRNP-E1
same,effect on RNA-complex formation,[9]; 10-mM glutathione,comparable dose-dependent reduction in RNA-complex formation
same,effect on formation of RNA-protein complexes,[9]; no glutathione,dose-dependent inhibitory effect
same,RNA-protein binding affinity (KD),[10],dose-dependent reduction in RNA-protein binding affinity
"N[C@@H](CCS)C(=O)O [L-Homocysteine, L-homocysteine]",slot-blot hybridization signal of captured RNA-protein complexes,[11],progressive dose-dependent increase in signal
same,CAT activity,[12],further significant increase in CAT activity over baseline
same,RNA-protein complex formation,"[13]; 10-mM glutathione in reaction mixture, from 5-μM",dose-dependent increase in RNA-protein complex formation
same,concentration at which RNA-protein interaction can occur,[13]; in vitro assays using purified components,≥ 2.5 µM
same,RNA-protein signal,[13]; increasing physiologically relevant concentrations,dose-dependent increase of RNA-protein signal
same,translation of hnRNP-E1,"[8]; N-ethylmaleimide maintained in the reaction mixture, physiological concentrations",progressively increased translation of hnRNP-E1
same,hnRNP-E1 activation and mRNA-binding,[14],optimal
